{
  "source": "patent US20200255828A1",
  "about": "“METHODS AND COMPOSITIONS FOR ALTERING FUNCTION AND STRUCTURE OF CHROMATIN LOOPS AND/OR DOMAINS” (THE BROAD INSTITUTE, INC., priority 2017, published 2020)",
  "key": {"[1]": {"test_system": "HCT-116 RAD21-mAC cells", "assay": "APA for cohesin-independent links after cohesin degradation with ATP depletion", "format": "cell-based, human", "conditions": "auxin 6 hours, without any additional treatment", "excerpt": "Using the degron system, Applicants can directly measure the influence of cellular processes on loop formation (Vian et al, 2018). […] Applicants also tested interchromasomal cohesin-independent links requirement for ATP after cohesin degradation and observed that depletion of ATP strengthens the interactions between superenhancers (FIG. 23)."}, "[2]": {"test_system": "cohesin complex", "assay": "ChIP-Seq for RAD21 and SMC1 (cohesin binding to chromatin) with and without auxin", "format": "cell-based, human", "excerpt": "Applicants employed an auxin-inducible degron (AID) (Natsume et al., 2016) to destroy RAD21, a core component of the cohesin complex. In this system, constitutive expression of the auxin-activated ubiquitin ligase TIR1 leads, in the presence of auxin, to rapid degradation of proteins tagged with an AID domain. Applicants used this system in HCT-116, a human colorectal carcinoma cell line. This cell line had been previously modified by (Natsume et al., 2016) so that both RAD21 alleles were tagged with an AID domain and a fluorescent mClover (“RAD21-mAC”) (FIG. 1A). Applicants confirmed that RAD21-mAC was efficiently degraded after 6 hours of auxin treatment using fluorescence microscopy and ChIP (FIG. 1B, 8, see Methods), and that cohesin could no longer associate with DNA using ChIP-Seq with antibodies for SMC1, a different cohesin subunit (FIG. 1C, D).\nChIP-Seq for H3K27Ac, H3K4me1, H3K4me3, H3K36me3, H3K27me3, H3K9me3, H4K16Ac, H4K20me3, H3K79me2, and H2.AZ was performed using a native ChIP-Seq protocol. Chromatin from untreated HCT-116 RAD21-mAC cells or cells treated for 6 hours with 500 uM IAA was digested with Mnase (Sigma) in digestion buffer (50 mM Tris-HCl, pH7.6, 1 mM CaCl2), 0.2% Triton X-100, butyrate 5 mM) for 5′ at 37° C. and dialyzed against RIPA buffer for 2 hrs at 4° C. Five microgram of respective antibody was incubated with 40 μl of Dynabeads Protein A (or G) for 40 min at room temperature. Antibody-bound beads were added to 500 μl of sonicated or Mnase-digested chromatin, incubated at 4° C. overnight, and washed twice with RIPA buffer, twice with RIPA buffer containing 0.3 M NaCl, twice with LiCl buffer (0.25 M LiCl, 0.5% Igepal-630, 0.5% sodium deoxycholate), once with TE (pH 8.0) plus 0.2% Triton X-100, and once with TE (pH 8.0). ChIP DNA was purified by phenol-chloroform extraction followed by ethanol precipitation. Libraries were prepped for Illumina sequencing and 50 bp single-end reads were sequenced on a HiSeq2000 or 2500 (Illumina). Applicants also performed ChIP-Seq for RAD21 and CTCF following the same protocol as above, except that cells were fixed with 1% formaldehyde for 10 minutes at 37° C. and fixation was quenched by the addition of glycine to a final concentration of 125 mM for 10 minutes. The fixed cells were sonicated using a Branson sonifier at amplitude 35%, 12 cycles of 20 seconds of sonication and 30 seconds of pause. Antibody was added to the sonicated chromatin as above and the samples were further processed as above.\nApplicants also performed ChIP-Seq for SMC1 and an additional replicate for CTCF following the protocol outlined by the ENCODE consortium (2012).\nAll ChIP-Seq data was aligned to hg19 with BWA […] (Li and Durbin, 2010), deduplicated using PicardTools, and analyzed with MACS 2.0 (Liu, 2014). All data was normalized against the corresponding input control using the ‘-c’ option of MACS 2.0. ChIP-Seq peaks were called using the ‘callpeak’ function of MACS 2.0 with default parameters. For H3K4me3 and H3K4me1, Applicants additionally used the ‘broad’ option of MACS 2.0 and merged close by peaks to identify broad peaks. […] Finally, in order to annotate broad-source domains, Applicants utilized RSEG (Song and Smith, 2011) using the following flags: ‘-b 25000’, ‘-i 20’, ‘-mode 2’.\nApplicants also analyzed the RAD21 and SMC1 signal at all ChIP-Seq peaks called in our data from untreated cells using MACS 2.0. […]"}, "[3]": {"conditions": "average at ChIP-Seq peaks called in untreated cells"}},
  "data": [
    {"smiles": "O=C(O)Cc1c[nH]c2ccccc12", "note": "[auxin, indole-3-acetic acid]", "values": [
      {"measurement": "APA score for cohesin-independent links", "setting": "[1]", "result": 8.28},
      {"measurement": "cohesin peaks (merged SMC1 and RAD21 ChIP-Seq calls) lost after auxin treatment", "setting": "[2]; 6 hours auxin", "result": 97, "unit": "%"},
      {"measurement": "reduction in binding strength of RAD21", "setting": "[2]; [3]", "result": 81, "unit": "%"},
      {"measurement": "reduction in binding strength of SMC1", "setting": "[2]; [3]", "result": 75, "unit": "%"},
      {"measurement": "RAD21 mean enrichment in treated cells", "setting": "[2]; untreated 12.58", "result": 2.39},
      {"measurement": "SMC1 mean enrichment in treated cells", "setting": "[2]; untreated 16.23", "result": 4.00}
    ]}
  ]
}
